# Measurements as given in PubChem BioAssay AID179 (DTP/NCI, 2004).
# Where “and” joins values, the source holds several entries; their conditions need not be identical. Equal entries are not always repeated. Calls of active or inactive are those of the source.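 How the source made its calls: active means compounds giving half or more protection of infected cells from virus-caused growth loss, again on retest; inactive means the rest.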 Where a SMILES comes first, the peptide text is derived from it. [ ]: non-standard residue; d: D form. The star is where a group is joined. Phe(4-Cl) = N[CH](Cc1ccc(Cl)cc1)C(=O)O; 2Nal = N[CH](Cc1ccc2ccccc2c1)C(=O)O; 3Pal = N[CH](Cc1cccnc1)C(=O)O; Boc = CC(C)(C)OC(=O)*; OBn = c1ccc(CO*)cc1
# Test system: CEM cells HIV-1 protection, formazan growth assay
# Assay: NCI AIDS Antiviral Assay
# Details: for IC50: measured here: growth of uninfected CEM cells
# How it was run: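 Human CEM cells, uninfected and HIV-1-infected, exposed to five drug concentrations; growth measured by soluble formazan assay and scored as percent protection from infection, with protecting compounds retested.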
SMILES,EC50 [µM],IC50,outcome
O=C(O)C(=O)O.[NH-]C1CCCC1[NH-].[Pt+2] (stereo unspecified),> 200,9.55 µM,–
Cn1c2c(c3ccccc31)CCN(CCN1CCN(c3cccc(Cl)c3)CC1)C2=O,> 8.51,> 8.51 µM,–
CS(=O)(=O)OCC(CCl)(CCl)CCl,> 933,661 µM,–
CO[C@@H]1/C=C\C=C(/C)C(=O)NC2=CC(=O)C(NCCN(C)C)=C(C[C@@H](C)C[C@@H](OC)[C@@H](O)[C@H](C)/C=C(\C)[C@H]1OC(N)=O)C2=O,> 2,0.102 µM,–
COc1c(-c2cccs2)oc2c(CC(=O)O)cccc2c1=O,> 200,91.2 µM,–
O=C(NCc1ccccc1Cl)c1c(O)c2ccccc2[nH]c1=O,> 200,> 200 µM,–
COC(=O)N1C2CCCCC2=NN(c2ccccc2)N1C(=O)OC (stereo unspecified),> 204,> 204 µM,–
On1ccc(=S)c2ccccc21,> 200,36.3 µM,–
O=C1CCCC/C1=C\c1ccc([N+](=O)[O-])cc1,> 200,6.03 µM,–
COc1ccc(-n2cc3c(c2)C(=O)OC3=O)cc1OC,–,–,inactive
C=CCOC(=O)NC1C(OC(C)[C@@H](NC(=O)OCc2ccccc2)C(=O)OC(C)(C)C)OC(COC(C)=O)C(OC(C)=O)C1OC(C)=O (stereo partly specified),> 200,28.8 µM,–
COC1=C(OC)C(=O)C(C/C=C(\C)CC/C=C(\C)CC/C=C(\C)CC/C=C(\C)CC/C=C(\C)CC/C=C(\C)CC/C=C(\C)CC/C=C(\C)CC/C=C(\C)CCC=C(C)C)=C(C)C1=O,> 110,> 110 µM,–
COC(=O)C1(C)CCc2c(OC)ccc(OC)c2C1=O (stereo unspecified),120,324 µM,–
Brc1ccc2c(ccc3nc4nnnn4nc32)c1,> 17.4,> 17.4 µM,–
NCCCNCCSSC/C=C\CSSCCNCCCN,–,–,inactive
COC(=O)C(C(=O)C(=O)Nc1ccccc1C#N)c1nc2ccc([N+](=O)[O-])cc2[nH]c1=O (stereo unspecified),> 16.6,> 16.6 µM,–
CNC1C(OC2C(OC3C(O)C(O)C(N=C(N)N)C(O)C3N=C(N)N)OC(C)C2(O)CO)OC(CO)C(O)C1O (stereo unspecified),–,–,inactive
CN(C)c1ccc(/C=C/c2ccc3ccccc3[n+]2C)cc1,0.0631,0.398 µM,–
N#CC1=C2Oc3ccccc3N2C(c2ccc(Cl)cc2)C(C#N)=C1N (stereo unspecified),> 200,36.3 µM,–
CCOC(=O)C1=C(O)c2c(sc(C)c2-c2ccccc2)N(S(=O)(=O)c2ccc(C)cc2)CC1,> 100,4.79 µM,–
CC1(C)OC(=S)N(c2ccccc2)C12C=Cc1cc3ccccc3cc1O2 (stereo unspecified),> 200,79.4 µM,–
CC1CSC(=S)N1C(=O)N1C(=S)SCC1C (stereo unspecified),–,–,inactive

SMILES,EC50 [µM],IC50,outcome
CC(=O)NNc1nc(C)c(C(=O)NNC(=O)C(=O)Nc2ccc(C)cc2[N+](=O)[O-])s1,> 83.2,39.8 µM,–
CN(C)CC/C=C1/c2ccccc2Sc2ccc(Cl)cc21,> 200,27.5 µM,–
Cc1ccccc1NC(=O)c1[nH]c(=S)nc(N)c1-c1ccccc1C,> 97.7,> 97.7 µM,–
CC1(C)CC(=O)C(/C=N/C(=S)NC2CCCCC2)=C(O)C1,> 100,> 100 µM,–
COC(=O)[C@@H]1C2OC(C)(C)OC2CN1C(=O)OCc1ccccc1 (stereo partly specified),–,–,inactive
CCCCCCCCC1=C(OC)C(=O)c2c(C)ccnc2C1=O,–,–,inactive
CCOC(=O)c1[nH]c(COC(C)=O)c(CCCOC(C)=O)c1CCCOC(C)=O,–,–,inactive
CCOc1ccc(N)c(S)c1,> 200,26.9 µM,–
CC(=O)NC(Cc1ccc2ccccc2c1)C(=O)NC(Cc1ccc(Cl)cc1)C(=O)NC(Cc1cccnc1)C(=O)NC(CO)C(=O)NC(Cc1ccc(O)cc1)C(=O)NC(CCCN=C(N)N)C(=O)NC(CC(C)C)C(=O)NC(CCCN=C(N)N)C(=O)N1CCCC1C(=O)NC(C)C(N)=O (stereo unspecified) (Ac-[2Nal][Phe(4-Cl)][3Pal]SYRLRPA-NH2; configuration not given here),> 61.7,15.1 µM,–
COC(=O)/C(=N/NC(C)(C)C)C(C(=O)OC)C(=O)C(=O)Nc1nc2ccc([N+](=O)[O-])cc2s1 (stereo unspecified),> 53.7,> 53.7 µM,–
COC(=O)c1ccc(Cl)cc1NC(=O)C1CCCCC1,–,–,inactive
O=C1CSC2=NC3=C(COC/C3=C\c3ccc(Br)cc3)C(c3ccc(Br)cc3)N12 (stereo unspecified),–,–,inactive
COC(=O)C(Cc1ccc2c(c1)OCO2)(NC(=O)c1ccccc1)P(=O)(OC)OC (stereo unspecified),> 575,> 575 µM,–
Cc1ccc(S(=O)(=O)N/N=C\c2c3ccccc3[n+](C)c3ccccc23)cc1,–,–,inactive
COc1cc(/C=C(\NC(=O)c2ccccc2)c2nc3ccc([N+](=O)[O-])cc3[nH]2)cc(OC)c1OC,–,–,inactive
Cc1ncc2c(c1O)COC2=O,> 1510,> 1510 µM,–
[N-]=[N+]=NI1OC(=O)c2ccccc21,> 200,55 µM,–
CCNc1nnc(-c2ccccc2Nc2ccccc2-c2nnc(NCC)s2)s1,> 200,16.2 µM,–
CC(C)C(NC(=O)OC(C)(C)C)C(=O)N1CCCC1C(=O)OCc1ccccc1 (stereo not drawn) (Boc-Val-Pro-OBn; configuration not given here),> 200,123 µM,–
O=C(CSc1nnc(Cc2ccccc2)o1)Nc1cccc(Cl)c1,> 100,49 µM,–
CN(C)N1C(=O)c2c(Cl)c(Cl)c(Cl)c(Cl)c2C1=O,> 200,91.2 µM,–
COc1cc2c(cc1OC)C1(c3ccc(Cl)cc3)ON=C(c3ccccc3)N1CS2 (stereo unspecified),> 6.17,> 6.17 µM,–

SMILES,EC50 [µM],IC50,outcome
Cc1ccc(OCC2OC(n3cnc4c(N(C)C)nc(Br)nc43)CC2Oc2ccc(C)cc2)cc1 (stereo unspecified),> 200,31.6 µM,–
C=CCc1cc(OC)c2c(c1)C(OC)CC(c1ccc(OC)c(OC)c1)O2 (stereo unspecified),> 251,> 251 µM,–
Cc1ccc(C2(O)c3cccc4cccc(c34)C2(O)c2ccc(C)cc2)cc1 (stereo unspecified),> 200,13.5 µM,–
O=S1OC(c2ccccc2)(c2ccccc2)C(c2ccccc2)(c2ccccc2)O1,> 16.2,> 16.2 µM,–
CCCCCCCCOC1OC(COC(C)=O)C(OC(C)=O)C(OC(C)=O)C1OC(C)=O (stereo unspecified),> 100,> 100 µM and 95.5 µM,–
CC(=O)N1C(=N)SCC1C(N)=O (stereo unspecified),427,479 µM,–
O=C(O)c1ccc(C2=Cc3cc(Cl)ccc3OC2)cc1,> 66.1,> 66.1 µM,–
CSCCC(NCc1c(O)ccc2c(-c3ccccc3)cc(=O)oc12)C(=O)O (stereo unspecified),> 200,> 200 µM,–
COC(OC)c1cccc2c1C(=O)CCC1(CC2)OCCCCO1,> 200,> 200 µM,–
CN/N=C(/Cc1occc(=O)c1O)C(=O)Nc1ccccc1C,> 794,724 µM,–
CCCCCC(O)[C@H]1C(=O)C[C@@H](O[Si](C)(C)C(C)(C)C)[C@@H]1/C=C/CCOCc1ccccc1 (stereo partly specified),–,–,inactive
CC1C2CCC3C4CC=C5CC(N(C)C)CCC5(C)C4CCC32CN1C (stereo unspecified),> 200,41.7 µM,–
C[N+](C)(Cc1ccc(NC(=O)CCCC(=O)ON2C(=O)CCC2=O)cc1)c1ccccc1,> 200,135 µM,–
CS(=O)(=O)c1noc(N)n1,> 1510,1260 µM,–
O/N=C1/C(=C/c2ccc(Oc3ccccc3)cc2)CCCC1C(NO)c1ccc(Oc2ccccc2)cc1 (stereo unspecified),> 10.2,> 10.2 µM,–
O=C1C[C@H](Sc2ccccc2)C2(OCCO2)[C@@H](Sc2ccccc2)C1,> 2,1.05 µM,–
O=C1Oc2ccccc2C(=O)/C1=C1/C=C(c2ccccc2)SS1,> 200,> 200 µM,–
NC(N)=NS(=O)(=O)c1ccc(NC(=O)c2cccc3c(NNc4ccc(C(=O)O)cc4)c4ccccc4nc23)cc1,> 200,33.9 µM,–
O=C1NC23C4C5C6C4C2(N1)C6C53 (stereo unspecified),> 1550,891 µM,–
CC[C@@H]1C[C@@H]2CN3CCc4c([nH]c5ccc(OC)cc45)C(COC(=O)c4ccc(OC)c(OC)c4)(C2)C13,–,–,inactive
O=C(O)Cc1c(-c2ccc([N+](=O)[O-])cc2)c(=O)oc2cc(O)ccc12,> 200,21.4 µM,–
CS(=O)(=O)c1ccc(SSc2ccc(S(C)(=O)=O)cc2[N+](=O)[O-])c([N+](=O)[O-])c1,–,–,inactive

SMILES,EC50 [µM],IC50,outcome
Oc1ccc(O)c(-n2cccn2)c1,> 14.1,7.24 µM,–
CC(=O)CC(=O)CCCC(=O)Nc1ccc(Cl)cc1Cl,–,–,inactive
CC(C)(C)c1cc2c(O)c(c1)COCc1cc(C(C)(C)C)cc(c1O)COCc1cc(C(C)(C)C)cc(c1O)COC2,> 200,145 µM,–
CC(C)(C)CNC(=O)NCn1cc(-c2ccccc2)nn1,> 200,> 200 µM,–
COC(OC)[C@@H]1OC[C@@H](O)[C@@H]1n1cnc2c(N)ncnc21,> 200,> 200 µM,–
CC(C)=CCC/C(C)=C/CN1Cc2cccc3[nH]c(=S)n(c23)CC1C (stereo unspecified),> 18.2,–,–
COCCN1C(=O)C(NC(C)=O)C1COC(C)(C)C (stereo unspecified),> 912,> 912 µM,–
Cc1nc2c(ccc3[nH]c4ccccc4c32)s1,–,–,inactive
CSc1nnc(C(C#N)C#N)nn1,–,–,inactive
Cc1ccc(C)c(COCCOCn2ccc(N)nc2=O)c1,> 200,> 200 µM,–
Cc1ccc(NC(=S)/C(=C(/[O-])c2ccc([N+](=O)[O-])cc2)[n+]2ccccc2)c(C)c1,> 200,> 200 µM,–
O=C1NC(=O)c2ccccc2/C1=C/c1ccc2c(c1)OCO2,> 200,2.09 µM,–
Nc1nc(Cl)cc(NCC2(CCO)CCC2)n1,> 200,138 µM,–
O=C1CC(O)CC(=O)C1=C(O)CCCCCCCCCCc1ccccc1 (stereo unspecified),> 19.5,> 19.5 µM,–
[N-]=[N+]=NCC(CO)OCn1cc(Cc2ccccc2)c(=O)[nH]c1=O (stereo unspecified),–,–,inactive
CC(=C(c1ccccc1)c1ccccc1)N1C(=O)CC(=O)N1C,> 200,120 µM,–
CCNC(=O)OCc1cnc(C)c(O)c1COC(=O)NCC,> 200,> 200 µM,–
CC(=O)/C(C)=N/NC(=O)c1ccccc1O,> 4.79,> 4.79 µM,–
CN(C)[C@@H]1C(=O)C(C(N)=O)=C(O)[C@@]2(O)C(=O)C3=C(O)c4c(O)ccc(Cl)c4[C@@](C)(O)[C@H]3C[C@@H]12,> 14.1,> 14.1 µM,–
